Data as given in ChEMBL document CHEMBL4334464, “From Phenylthiazoles to Phenylpyrazoles: Broadening the Antibacterial Spectrum toward Carbapenem-Resistant Bacteria” (J Med Chem, 2019).
Values after ≈ are worked out from the molar mass of the structure shown. Active and inactive are the calls of the source. The rule behind the calls is not given here.

Legend:
Pseudomonas aeruginosa [1] = test: microbe, parasite or virus in culture; conditions: ATCC 9027
Description: Antibacterial activity against Pseudomonas aeruginosa ATCC 9027 clinical isolates after 18 to 20 hrs in aerobic condition by CLSI-based broth microdilution assay

Clostridioides difficile = test: Antibacterial activity against Clostridium difficile ATCC BAA 1870 incubated for 48 hrs in anaerobic condition by CLSI-based broth microdilution assay; assay type: functional; conditions: ATCC BAA 1870, 48 h
Escherichia coli [2] = test: Antibacterial activity against Escherichia coli ATCC 35150 clinical isolates after 18 to 20 hrs in aerobic condition by CLSI-based broth microdilution assay; assay type: functional
Acinetobacter baumannii [3] = test: Ratio of MBC to MIC for Acinetobacter baumannii ATCC BAA 1747 clinical isolates; assay type: functional
Escherichia coli [4] = test: Ratio of MBC to MIC for Escherichia coli ATCC 1411 clinical isolates; assay type: functional
Acinetobacter baumannii [5] = test: Ratio of MBC to MIC for Acinetobacter baumannii ATCC 19606 clinical isolates; assay type: functional, ATCC 19606 = CIP 70.34 = JCM 6841
Staphylococcus aureus [6] = test: Antibacterial activity against vancomycin-resistant Staphylococcus aureus isolate 12 after 18 to 20 hrs in aerobic condition by CLSI-based broth microdilution assay; assay type: functional
Klebsiella pneumoniae [7] = test: Antibacterial activity against carbapenem-resistant Klebsiella pneumoniae ATCC BAA-2146 clinical isolates after 18 to 20 hrs in aerobic condition by CLSI-based broth microdilution assay; assay type: functional
Klebsiella pneumoniae [8] = test: Antibacterial activity against Klebsiella pneumoniae BAA-1706 clinical isolates after 18 to 20 hrs in aerobic condition by CLSI-based broth microdilution assay; assay type: functional
Staphylococcus aureus [9] = test: Antibacterial activity against Methicillin-resistant Staphylococcus aureus NRS385-USA500 clinical isolates after 18 to 20 hrs in aerobic condition by CLSI protocol based broth microdilution assay; assay type: functional
Klebsiella pneumoniae [10] = test: Ratio of MBC to MIC for Klebsiella pneumoniae BAA-1706 after 18 to 20 hrs in aerobic condition by CLSI-based broth microdilution assay; assay type: functional
Pseudomonas aeruginosa [11] = test: Ratio of MBC to MIC for Pseudomonas aeruginosa ATCC 15442 clinical isolates; assay type: functional
Streptococcus pneumoniae = test: Antibacterial activity against cephalosporin-resistant Streptococcus pneumoniae ATCC 51916 clinical isolates after 18 to 20 hrs by CLSI-based broth microdilution assay; assay type: functional
Staphylococcus aureus [12] = test: Bactericidal activity against methicillin-resistant Staphylococcus aureus NRS123-USA400 clinical isolates at 5 times MIC incubated over 24 hrs followed by replating on tryptic soy agar plate and further incubated for 18 to 20 hrs by time kill assay; assay type: functional, organism-based
Enterococcus faecium = test: Antibacterial activity against vancomycin-resistant Enterococcus faecium ATCC 700221 clinical isolates after 18 to 20 hrs in aerobic condition by CLSI-based broth microdilution assay; assay type: functional
Shigella flexneri = test: Ratio of MBC to MIC for Shigella flexneri ATCC 9199 clinical isolates; assay type: functional
Escherichia coli [13] = test: Antibacterial activity against Escherichia coli ATCC 25922 clinical isolates after 18 to 20 hrs in aerobic condition by CLSI-based broth microdilution assay; assay type: functional
Staphylococcus aureus [14] = test: Antibacterial activity against linezolid-resistant/Methicillin-resistant Staphylococcus aureus NRS119 clinical isolates after 18 to 20 hrs in aerobic condition by CLSI protocol based broth microdilution assay; assay type: functional
Acinetobacter baumannii [15] = test: Antibacterial activity against carbapenem-resistant Acinetobacter baumannii ATCC BAA 1605 clinical isolates after 18 to 20 hrs in aerobic condition by CLSI-based broth microdilution assay; assay type: functional
Escherichia coli [16] = test: Antimicrobial activity against Escherichia coli JW55031 harboring deltatolC mutant after 18 to 20 hrs in aerobic condition by CLSI protocol based broth microdilution assay; assay type: functional
Acinetobacter baumannii [17] = test: Antibacterial activity against Acinetobacter baumannii ATCC BAA 1141 clinical isolates after 18 to 20 hrs in aerobic condition by CLSI-based broth microdilution assay; assay type: functional
Salmonella enteritidis [18] = test: Antibacterial activity against Salmonella enteritidis ATCC 14028 clinical isolates after 18 to 20 hrs in aerobic condition by CLSI-based broth microdilution assay; assay type: functional, Salmonella enterica subsp. enterica serovar Enteritidis; conditions: Salmonella enterica
Pseudomonas aeruginosa [19] = test: microbe, parasite or virus in culture; conditions: ATCC 25619
Description: Antibacterial activity against Pseudomonas aeruginosa ATCC 25619 clinical isolates after 18 to 20 hrs in aerobic condition by CLSI-based broth microdilution assay

Salmonella typhimurium = test: Ratio of MBC to MIC for Salmonella typhimurium ATCC 700720 clinical isolates; assay type: functional, Salmonella enterica subsp. enterica serovar Typhimurium
Escherichia coli [20] = test: Inhibition of 6His tagged Escherichia coli UPPP expressed in Escherichia coli C41(DE3) cells preincubated for 15 mins followed by FPP substrate addition and measured after 20 mins by malachite green reagent based assay
Salmonella enteritidis [21] = test: Antibacterial activity against Salmonella enteritidis ATCC 13076 clinical isolates after 18 to 20 hrs in aerobic condition by CLSI-based broth microdilution assay; assay type: functional, Salmonella enterica subsp. enterica serovar Enteritidis; conditions: Salmonella enterica
Escherichia coli [22] = test: Ratio of MBC to MIC for Escherichia coli ATCC 35150 clinical isolates; assay type: functional
Escherichia coli [23] = test: microbe, parasite or virus in culture; conditions: ATCC 1411
Description: Antibacterial activity against Escherichia coli ATCC 1411 clinical isolates after 18 to 20 hrs in aerobic condition by CLSI-based broth microdilution assay

Acinetobacter baumannii [24] = test: Ratio of MBC to MIC for Acinetobacter baumannii NR 17785 clinical isolates; assay type: functional
Staphylococcus aureus [25] = test: Ratio of MBC to MIC for Methicillin-sensitive Staphylococcus aureus ATCC 6538 clinical isolates; assay type: functional
[26] = system: Staphylococcus epidermidis; test: Antibacterial activity against Staphylococcus epidermidis NRS101 after 18 to 20 hrs in aerobic condition by CLSI-based broth microdilution assay; assay type: functional
Salmonella enterica [27] = test: Ratio of MBC to MIC for Salmonella enterica NR-170 clinical isolates; assay type: functional
Listeria monocytogenes = test: Ratio of MBC to MIC for Listeria monocytogenes ATCC 19111 clinical isolates; assay type: functional
Acinetobacter baumannii [28] = test: Antibacterial activity against Acinetobacter baumannii ATCC 19606 clinical isolates after 18 to 20 hrs in aerobic condition by CLSI-based broth microdilution assay; assay type: functional; conditions: ATCC 19606 = CIP 70.34 = JCM 6841
Pseudomonas aeruginosa [29] = test: Ratio of MBC to MIC for Pseudomonas aeruginosa ATCC 9027 clinical isolates; assay type: functional
Escherichia coli [30] = test: Antibacterial activity against carbapenem-resistant Escherichia coli BAA-2469 clinical isolates after 18 to 20 hrs in aerobic condition by CLSI-based broth microdilution assay; assay type: functional
Pseudomonas aeruginosa [31] = test: Ratio of MBC to MIC for Pseudomonas aeruginosa ATCC 25619 clinical isolates; assay type: functional
Acinetobacter baumannii [32] = test: Ratio of MBC to MIC for Acinetobacter baumannii NR 17786 clinical isolates; assay type: functional
Staphylococcus aureus [33] = test: Antibacterial activity against Methicillin-resistant Staphylococcus aureus NRS123-USA400 clinical isolates after 18 to 20 hrs in aerobic condition by CLSI protocol based broth microdilution assay; assay type: functional
[34] = Antibacterial activity against Enterobacter cloacae subsp. cloacae ATCC BAA-1143 clinical isolates after 18 to 20 hrs in aerobic condition by CLSI-based broth microdilution assay; assay type: functional
Staphylococcus aureus [35] = test: Antibacterial activity against Methicillin-sensitive Staphylococcus aureus NRS107 clinical isolates after 18 to 20 hrs in aerobic condition by CLSI protocol based broth microdilution assay; assay type: functional
Salmonella enterica [36] = test: Antibacterial activity against Salmonella enterica NR-170 clinical isolates after 18 to 20 hrs in aerobic condition by CLSI-based broth microdilution assay; assay type: functional
Pseudomonas aeruginosa [37] = test: Antibacterial activity against carbapenem-resistant Pseudomonas aeruginosa ATCC 1744 clinical isolates after 18 to 20 hrs in aerobic condition by CLSI-based broth microdilution assay; assay type: functional

C/C(=N\NC(=N)N)c1cnn(-c2ccc(C#Cc3ccccc3)cc2)c1C
MIC (Pseudomonas aeruginosa [1]): 16 µg/mL (≈ 44.9 µM)
MIC (Clostridioides difficile): 4 µg/mL (≈ 11.2 µM)
MIC (Escherichia coli [2]): 8 µg/mL (≈ 22.4 µM)
Ratio (Acinetobacter baumannii [3]): >=1
Ratio (Escherichia coli [4]): >=1
Ratio (Acinetobacter baumannii [5]): >=1
MIC (Staphylococcus aureus [6]): 2 µg/mL (≈ 5.61 µM)
MIC (Klebsiella pneumoniae [7]): 16 µg/mL (≈ 44.9 µM)
MIC (Klebsiella pneumoniae [8]): 8 µg/mL (≈ 22.4 µM)
MIC (Staphylococcus aureus [9]): 1 µg/mL (≈ 2.81 µM)
Ratio (Klebsiella pneumoniae [10]): >=1
Ratio (Pseudomonas aeruginosa [11]): >=1
MIC (Streptococcus pneumoniae): 1 µg/mL (≈ 2.81 µM)
Activity (Staphylococcus aureus [12]): Active
MIC (Enterococcus faecium): 1 µg/mL (≈ 2.81 µM)
Ratio (Shigella flexneri): >=1
MIC (Escherichia coli [13]): 4 µg/mL (≈ 11.2 µM)
MIC (Staphylococcus aureus [14]): 1 µg/mL (≈ 2.81 µM)
MIC (Acinetobacter baumannii [15]): 4 µg/mL (≈ 11.2 µM)
MIC (Escherichia coli [16]): 2 µg/mL (≈ 5.61 µM)
MIC (Acinetobacter baumannii [17]): 4 µg/mL (≈ 11.2 µM)
MIC (Salmonella enteritidis [18]): 16 µg/mL (≈ 44.9 µM)
MIC (Pseudomonas aeruginosa [19]): 32 µg/mL (≈ 89.8 µM)
Ratio (Salmonella typhimurium): >=1
inhibition (Escherichia coli [20]): inactive
MIC (Salmonella enteritidis [21]): 8 µg/mL (≈ 22.4 µM)
Ratio (Escherichia coli [22]): >=1
MIC (Escherichia coli [23]): 8 µg/mL (≈ 22.4 µM)
Ratio (Acinetobacter baumannii [24]): >=1
Ratio (Staphylococcus aureus [25]): <=2
MIC [26]: 2 µg/mL (≈ 5.61 µM)
Ratio (Salmonella enterica [27]): >=1
Ratio (Listeria monocytogenes): <3
MIC (Acinetobacter baumannii [28]): 4 µg/mL (≈ 11.2 µM)
Ratio (Pseudomonas aeruginosa [29]): >=1
MIC (Escherichia coli [30]): 8 µg/mL (≈ 22.4 µM)
Ratio (Pseudomonas aeruginosa [31]): >=1
Ratio (Acinetobacter baumannii [32]): >=1
MIC (Staphylococcus aureus [33]): 2 µg/mL (≈ 5.61 µM)
MIC [34]: 8 µg/mL (≈ 22.4 µM)
MIC (Staphylococcus aureus [35]): 2 µg/mL (≈ 5.61 µM)
MIC (Salmonella enterica [36]): 8 µg/mL (≈ 22.4 µM)
MIC (Pseudomonas aeruginosa [37]): 16 µg/mL (≈ 44.9 µM)

C/C(=N\NC1=NCCN1)c1cnn(-c2ccc(C#CC3CCCC3)cc2)c1C
MIC (Pseudomonas aeruginosa [1]): 32 µg/mL (≈ 85.4 µM)
MIC (Clostridioides difficile): 4 µg/mL (≈ 10.7 µM)
MIC (Escherichia coli [2]): 16 µg/mL (≈ 42.7 µM)
Ratio (Acinetobacter baumannii [3]): >=1
Ratio (Escherichia coli [4]): >=1
Ratio (Acinetobacter baumannii [5]): >=1
MIC (Staphylococcus aureus [6]): 4 µg/mL (≈ 10.7 µM)
MIC (Klebsiella pneumoniae [7]): 64 µg/mL (≈ 171 µM)
MIC (Klebsiella pneumoniae [8]): 32 µg/mL (≈ 85.4 µM)
MIC (Staphylococcus aureus [9]): 4 µg/mL (≈ 10.7 µM)
Ratio (Klebsiella pneumoniae [10]): >=1
Ratio (Pseudomonas aeruginosa [11]): >=1
MIC (Streptococcus pneumoniae): 8 µg/mL (≈ 21.4 µM)
Activity (Staphylococcus aureus [12]): Active
MIC (Enterococcus faecium): 4 µg/mL (≈ 10.7 µM)
Ratio (Shigella flexneri): >=1
MIC (Escherichia coli [13]): 32 µg/mL (≈ 85.4 µM)
MIC (Staphylococcus aureus [14]): 4 µg/mL (≈ 10.7 µM)
MIC (Acinetobacter baumannii [15]): 16 µg/mL (≈ 42.7 µM)
MIC (Escherichia coli [16]): 4 µg/mL (≈ 10.7 µM)
MIC (Acinetobacter baumannii [17]): 16 µg/mL (≈ 42.7 µM)
MIC (Salmonella enteritidis [18]): 32 µg/mL (≈ 85.4 µM)
MIC (Pseudomonas aeruginosa [19]): 64 µg/mL (≈ 171 µM)
Ratio (Salmonella typhimurium): >=1
inhibition (Escherichia coli [20]): inactive
MIC (Salmonella enteritidis [21]): 32 µg/mL (≈ 85.4 µM)
Ratio (Escherichia coli [22]): >=1
MIC (Escherichia coli [23]): 64 µg/mL (≈ 171 µM)
Ratio (Acinetobacter baumannii [24]): >=1
Ratio (Staphylococcus aureus [25]): <=2
MIC [26]: 2 µg/mL (≈ 5.34 µM)
Ratio (Salmonella enterica [27]): >=1
Ratio (Listeria monocytogenes): <3
MIC (Acinetobacter baumannii [28]): 16 µg/mL (≈ 42.7 µM)
Ratio (Pseudomonas aeruginosa [29]): >=1
MIC (Escherichia coli [30]): 32 µg/mL (≈ 85.4 µM)
Ratio (Pseudomonas aeruginosa [31]): >=1
Ratio (Acinetobacter baumannii [32]): >=1
MIC (Staphylococcus aureus [33]): 4 µg/mL (≈ 10.7 µM)
MIC [34]: 32 µg/mL (≈ 85.4 µM)
MIC (Staphylococcus aureus [35]): 2 µg/mL (≈ 5.34 µM)
MIC (Salmonella enterica [36]): 32 µg/mL (≈ 85.4 µM)
MIC (Pseudomonas aeruginosa [37]): 32 µg/mL (≈ 85.4 µM)
